Values of other authors in patent US20110053898A1, “TOPICAL COMPOSITION COMPRISING VITAMIN D ANALOGUE AND CORTICOSTEROIDS” (GLENMARK GENERICS LTD, priority 2009, published 2011).

Settings: vitamin-D3 derivative versus calcitriol

## C=C1/C(=C/C=C2\CCC[C@]3(C)[C@@H]([C@H](C)/C=C/C(O)C4CC4)CC[C@@H]23)C[C@@H](O)C[C@@H]1O (stereo partly shown) [Calcipotriene]
  Power relative to the natural hormone calcitriol: about 1%
